Results published in patent US9067888B2, “Inhibitors of protein kinases” (Ingenium Pharmaceuticals GmbH, priority 2010, dated 2015).
pIC50: −log10 of the molar value.

What was measured:
GSK3-alpha = GSK3-alpha (Homo sapiens (Human), UniProt P49840); experiment: Kinase activity assay IC50 profile; assay type: biochemical; conditions: read-out: IC50 GSK3a
Method: (§1) In vitro kinase assay analysis may be performed using standard techniques described in the art. These techniques are also used by commercial services providers in order to offer in vitro kinase activity assay services, e.g. the assays offered by Millipore Inc. (worldwide website www(dot)millipore.com), ProQinase GmbH (worldwide website www(dot)proqinase.de) and others.
(§2) On the day of the kinase inhibition assay, 451 μl H2O were added to each well of a set of compound dilution plates. To minimize precipitation, the H2O was added to the plates only a few minutes before the transfer of the compound solutions into the assay plates. The plates were shaken thoroughly, resulting in “compound dilution plates/10%/DMSO” with a concentration of 1×10^−03 M/10% DMSO to 3×10^−08 M/10% DMSO in semilog steps. These plates were used for the transfer of 5 μl compound solution into the “assay plates”. The compound dilution plates were discarded at the end of the working day. For the assays (see below), 5 μl solution from each well of the compound dilution plates were transferred into the assay plates. The final volume of the assay was 50 μl. All compounds were tested at 10 final assay concentrations in the range from 1×10^−04 M to 3×10^−09 M. The final DMSO concentration in the reaction mixtures was 1% in all cases.
(§3) All kinase assays were performed in 96-well FlashPlates™ from Perkin Elmer/NEN (Boston, Mass., USA) in a 50 μl reaction volume. The reaction mixture was pipetted in four steps in the following order: • 20 μl of assay buffer (standard buffer) • 5 μl of ATP solution (in H2O) • 5 μl of test compound (in 10% DMSO) • 10 μl of substrate/10 μl of enzyme solution (premixed)
(§4) The assay for all enzymes contained 60 mM HEPES-NaOH (pH 7.5), 3 mM MgCl2, 3 mM MnCl2, 3 μM Na-Orthovanadate, 1.2 mM DTT, 50 μg/ml PEG2000, 1 μM [^33P]-ATP (approx. 5 ×1005 cpm per well).
(§5) Reaction mixtures were incubated at 30° C. for 80 min. The reaction was stopped with 50 μl of 2% (v/v) H3PO4, plates were aspirated and washed two times with 200 μl H2O or 200 μl 0.9% (w/v) NaCl. Incorporation of ^33P was determined with a microplate scintillation counter (Microbeta, Wallac).
(§6) The median value of the counts in column 1 (n=8) of each assay plate was defined as “low control”. This value reflects unspecific binding of radioactivity to the plate in the absence of a protein kinase but in the presence of the substrate. […] The residual activity (in %) for each well of a particular plate was calculated by using the following formula: Res. Activity(%)=100×[(cpm of compound−low control)/(high control−low control)]
(§7) The residual activities for each concentration and the compound IC50 values were calculated using Quattro Workflow V2.0.1.3 (Quattro Research GmbH, Munich, Germany; worldwide website www(dot)quattro-research.com). […]

IRAK1 = IRAK1 (Homo sapiens (Human), UniProt P51617); experiment: Kinase activity assay IC50 profile; assay type: biochemical
IRAK1, sequence (P51617 whole entry): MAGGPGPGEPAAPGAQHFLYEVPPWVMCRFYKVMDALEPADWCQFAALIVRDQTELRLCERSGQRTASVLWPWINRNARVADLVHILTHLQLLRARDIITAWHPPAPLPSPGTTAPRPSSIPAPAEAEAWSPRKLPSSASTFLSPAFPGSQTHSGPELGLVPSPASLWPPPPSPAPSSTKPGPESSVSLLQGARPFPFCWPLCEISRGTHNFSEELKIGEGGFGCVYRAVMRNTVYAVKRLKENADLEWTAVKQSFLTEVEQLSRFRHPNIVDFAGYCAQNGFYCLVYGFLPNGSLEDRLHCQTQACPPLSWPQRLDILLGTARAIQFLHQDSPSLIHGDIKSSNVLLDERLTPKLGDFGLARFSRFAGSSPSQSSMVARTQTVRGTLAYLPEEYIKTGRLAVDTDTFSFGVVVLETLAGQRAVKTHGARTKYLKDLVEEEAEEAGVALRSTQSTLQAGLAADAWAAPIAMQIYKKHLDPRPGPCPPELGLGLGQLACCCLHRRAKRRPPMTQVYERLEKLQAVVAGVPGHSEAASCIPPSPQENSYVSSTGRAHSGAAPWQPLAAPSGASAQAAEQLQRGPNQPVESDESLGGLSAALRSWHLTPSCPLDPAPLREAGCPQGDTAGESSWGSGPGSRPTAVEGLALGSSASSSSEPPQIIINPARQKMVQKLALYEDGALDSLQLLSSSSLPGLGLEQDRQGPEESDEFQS
Method: as §1, §2, §3, §4, §5, §6, §7

CDK7/CycH/MAT1 = CDK7/CycH/MAT1 (Homo sapiens (Human), UniProt P50613); experiment: Kinase activity assay IC50 profile; assay type: biochemical; conditions: read-out: IC50 CDK7/H/MAT1
Method: as §1, §2, §3, §4, §5, §6, §7

GSK3-beta = GSK3-beta (Homo sapiens (Human), UniProt P49841); experiment: Kinase activity assay IC50 profile; assay type: biochemical; conditions: read-out: IC50 GSK3b
GSK3-beta, sequence (P49841 whole entry): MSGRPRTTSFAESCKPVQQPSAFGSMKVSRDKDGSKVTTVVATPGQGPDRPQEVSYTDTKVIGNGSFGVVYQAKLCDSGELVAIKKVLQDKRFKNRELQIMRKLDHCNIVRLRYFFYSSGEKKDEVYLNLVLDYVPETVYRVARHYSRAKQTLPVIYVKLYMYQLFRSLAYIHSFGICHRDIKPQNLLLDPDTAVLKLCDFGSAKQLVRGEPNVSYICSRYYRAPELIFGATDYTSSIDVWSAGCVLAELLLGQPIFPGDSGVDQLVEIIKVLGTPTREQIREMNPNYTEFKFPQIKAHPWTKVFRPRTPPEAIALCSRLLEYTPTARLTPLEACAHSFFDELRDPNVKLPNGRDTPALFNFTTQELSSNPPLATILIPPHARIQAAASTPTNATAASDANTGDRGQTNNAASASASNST
Method: as §1, §2, §3, §4, §5, §6, §7

CDK3/CycE = CDK3/CycE (Homo sapiens (Human), UniProt Q00526); experiment: Kinase activity assay IC50 profile; assay type: biochemical; conditions: read-out: IC50 CDK3/E
CDK3/CycE, sequence (Q00526 whole entry): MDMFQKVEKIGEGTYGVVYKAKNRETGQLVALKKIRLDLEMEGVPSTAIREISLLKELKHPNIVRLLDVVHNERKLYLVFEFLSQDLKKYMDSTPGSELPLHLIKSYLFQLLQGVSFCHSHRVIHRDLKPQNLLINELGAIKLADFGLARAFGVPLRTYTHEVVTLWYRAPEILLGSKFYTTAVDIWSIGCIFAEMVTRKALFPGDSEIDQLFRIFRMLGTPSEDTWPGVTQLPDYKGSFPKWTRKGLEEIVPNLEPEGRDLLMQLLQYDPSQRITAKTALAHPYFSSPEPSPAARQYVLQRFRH
CDK3/CycE, sequence (P24864 whole entry partner): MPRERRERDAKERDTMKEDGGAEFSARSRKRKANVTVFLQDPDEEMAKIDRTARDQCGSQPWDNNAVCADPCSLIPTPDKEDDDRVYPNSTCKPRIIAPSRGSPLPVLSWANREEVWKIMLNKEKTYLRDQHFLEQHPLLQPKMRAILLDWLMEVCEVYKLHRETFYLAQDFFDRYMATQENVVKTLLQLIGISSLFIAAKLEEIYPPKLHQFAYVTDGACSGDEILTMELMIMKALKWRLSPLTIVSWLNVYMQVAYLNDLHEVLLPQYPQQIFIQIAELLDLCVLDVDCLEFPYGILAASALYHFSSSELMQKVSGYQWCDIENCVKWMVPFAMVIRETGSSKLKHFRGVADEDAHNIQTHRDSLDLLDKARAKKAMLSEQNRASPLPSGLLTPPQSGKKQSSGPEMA
Method: as §1
(§8) On the day of the kinase inhibition assay, 451 μl H2O were added to each well of a set of compound dilution plates. To minimize precipitation, the H2O was added to the plates only a few minutes before the transfer of the compound solutions into the assay plates. The plates were shaken thoroughly, resulting in “compound dilution plates/10%/DMSO” with a concentration of 1×10^−03 M/10% DMSO to 3×10^−08 M/10% DMSO in semilog steps. These plates were used for the transfer of 5 μl compound solution into the “assay plates”. The compound dilution plates were discarded at the end of the working day. For the assays (see below), 5 μl solution from each well of the compound dilution plates were transferred into the assay plates. The final volume of the assay was 50 μl. […]
(§9) The median value of the counts in column 1 (n=8) of each assay plate was defined as “low control”. This value reflects unspecific binding of radioactivity to the plate in the absence of a protein kinase but in the presence of the substrate. […]

CDK1/CycB = CDK1/CycB (Homo sapiens (Human), UniProt P06493); experiment: Kinase activity assay IC50 profile; assay type: biochemical; conditions: read-out: IC50 CDK1/B
CDK1/CycB, sequence (P06493 whole entry): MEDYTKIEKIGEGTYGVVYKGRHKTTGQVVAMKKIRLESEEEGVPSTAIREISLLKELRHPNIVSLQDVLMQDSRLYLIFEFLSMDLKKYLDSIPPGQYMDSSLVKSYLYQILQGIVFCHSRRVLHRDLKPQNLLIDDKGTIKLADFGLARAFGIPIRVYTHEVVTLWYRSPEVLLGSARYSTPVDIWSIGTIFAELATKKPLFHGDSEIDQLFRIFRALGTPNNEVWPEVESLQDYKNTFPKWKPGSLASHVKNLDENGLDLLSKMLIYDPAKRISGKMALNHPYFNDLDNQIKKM
CDK1/CycB, sequence (P14635 whole entry partner): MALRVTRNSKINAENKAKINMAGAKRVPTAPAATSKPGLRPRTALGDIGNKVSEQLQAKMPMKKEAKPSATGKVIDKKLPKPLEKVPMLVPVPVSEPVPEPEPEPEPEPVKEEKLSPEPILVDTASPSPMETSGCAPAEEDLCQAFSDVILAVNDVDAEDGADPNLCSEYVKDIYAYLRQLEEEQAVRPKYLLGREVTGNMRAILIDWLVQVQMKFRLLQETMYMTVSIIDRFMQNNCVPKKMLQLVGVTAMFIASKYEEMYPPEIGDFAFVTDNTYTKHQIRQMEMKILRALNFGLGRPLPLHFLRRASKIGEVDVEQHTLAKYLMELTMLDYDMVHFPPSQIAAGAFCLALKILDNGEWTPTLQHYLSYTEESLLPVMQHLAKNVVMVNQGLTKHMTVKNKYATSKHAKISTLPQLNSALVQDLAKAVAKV
Method: as §1, §8, §9

CDK9 = CDK9 (Homo sapiens (Human), UniProt P50750); experiment: In vitro kinase inhibition, KinaseProfiler service of Millipore, residual activity; assay type: biochemical
CDK9, sequence (P50750 whole entry): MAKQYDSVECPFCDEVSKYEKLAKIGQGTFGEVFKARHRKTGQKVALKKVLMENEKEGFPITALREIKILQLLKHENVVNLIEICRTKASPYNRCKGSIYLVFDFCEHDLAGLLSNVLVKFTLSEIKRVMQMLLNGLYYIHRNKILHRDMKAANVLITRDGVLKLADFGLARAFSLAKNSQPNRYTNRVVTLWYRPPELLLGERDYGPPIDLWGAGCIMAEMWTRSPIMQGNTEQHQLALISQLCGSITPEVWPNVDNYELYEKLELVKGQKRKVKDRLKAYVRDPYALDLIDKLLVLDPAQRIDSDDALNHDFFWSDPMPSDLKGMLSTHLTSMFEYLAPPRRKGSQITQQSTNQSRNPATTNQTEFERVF
CDK9, sequence (O60563 whole entry partner): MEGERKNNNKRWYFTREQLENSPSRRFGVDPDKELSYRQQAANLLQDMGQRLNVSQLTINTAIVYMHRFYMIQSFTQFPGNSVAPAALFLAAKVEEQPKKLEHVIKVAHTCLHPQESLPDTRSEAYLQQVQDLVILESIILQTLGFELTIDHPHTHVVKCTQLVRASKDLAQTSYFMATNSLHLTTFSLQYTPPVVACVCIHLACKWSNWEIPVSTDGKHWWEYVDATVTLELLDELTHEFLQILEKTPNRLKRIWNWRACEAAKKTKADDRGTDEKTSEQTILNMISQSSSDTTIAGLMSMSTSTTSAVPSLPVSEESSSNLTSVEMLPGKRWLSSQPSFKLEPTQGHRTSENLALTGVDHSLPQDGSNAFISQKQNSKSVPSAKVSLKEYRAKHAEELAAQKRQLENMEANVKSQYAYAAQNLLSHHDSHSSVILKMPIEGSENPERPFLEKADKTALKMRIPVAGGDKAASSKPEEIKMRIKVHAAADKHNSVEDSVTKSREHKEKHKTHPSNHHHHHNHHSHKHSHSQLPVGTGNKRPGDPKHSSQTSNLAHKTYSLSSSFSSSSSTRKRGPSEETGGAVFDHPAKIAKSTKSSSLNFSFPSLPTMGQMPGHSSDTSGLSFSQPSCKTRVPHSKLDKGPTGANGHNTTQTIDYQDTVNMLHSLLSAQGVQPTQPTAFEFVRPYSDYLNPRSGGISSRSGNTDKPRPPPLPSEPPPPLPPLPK
Description: as §1
In vitro kinase inhibition results shown in columns 7 to 9 in Table 1 were obtained by employing the KinaseProfiler™ service of Millipore and used to select compounds displaying specificity for CDK9. Specifically, it was intended to distinguish the CDK9-specific compounds from other compounds having significant inhibitory potency also with regard to other CDKs.

[1] = test system: TNF-alpha inducible reporter gene; experiment: Inhibition of TNF-alpha-induced reporter gene expression (luciferase) in HeLa-derived cell line; assay type: cell-based, human; conditions: Homo sapiens, 6 h, remaining luciferase activity in presence of 3 μM of compound as ratio of DMSO-treated cells, TNF-alpha 50 ng/ml, read-out: Efficacy (ratio to DMSO) TNF-alpha induced response
Description: TNF-alpha responsive cell lines like the human HeLa cell line can be used to study cellular responses to TNF-alpha, e.g. transcriptional regulation of a transfected TNF-alpha responsive reporter gene, and effects of kinase inhibitors on this response.
In order to analyse compound effects on TNF-alpha mediated transcriptional response, a HeLa-derived cell line stably transfected with a TNF-alpha inducible reporter gene was used (Panomics Catalog No. RC0013). The cell line was obtained by co-transfection of a luciferase reporter gene (Panomics P/N LR0051) and pHyg into human cervical epithelial HeLa cells, followed by hygromycin selection. TNFα-induced luciferase activity was used to select clones from the hygromycin-resistant cells. The cell line was maintained and stimulated according to the manufacturer's instructions. Briefly, cells were seeded at 5×10^5/well in 1 ml of growth medium in a 12-well plate and incubated in a humidified incubator at 37° C. and 5% CO2 for 24 hours. Medium was replaced with 1 ml of serum free medium and compounds were added up to concentrations of […]. After 1 hour of incubation, TNF-alpha was added to achieve a final concentration of 50 ng/ml. The culture dish was further incubated in a humidified incubator at 37° C. and 5% CO2 for 6 hours, medium was removed and 100 μL of lysis buffer were added to each well and the assay for luciferase activity was performed according to assay manufacturer's (Promega P/N E1500) recommendations. For more information about this cell line, go to worldwide website www(dot)panomics.com.
Compound effects on TNF-alpha-induced reporter gene expression is shown in column 6 in Table 1 given below. Indicated is the remaining luciferase activity after incubation in presence of 3 μM of compound as a ratio of the activity of DMSO-treated cells without compound. Specifically, it was intended to distinguish cell permeable compounds from other compounds having significant inhibitory potency with regard to other CDKs, but fail to penetrate cells or are unstable under the conditions of the experiment.

CDK5/p35NCK = CDK5/p35NCK (Homo sapiens (Human), UniProt Q00535); experiment: Kinase activity assay IC50 profile; assay type: biochemical; conditions: read-out: IC50 CDK5/p35
Method: as §1, §8, §9

CDK2/CycA = CDK2/CycA (Homo sapiens (Human), UniProt P24941); experiment: Kinase activity assay IC50 profile; assay type: biochemical
Method: as §1, §8, §9

CDK6/CycD3 = CDK6/CycD3 (Homo sapiens (Human), UniProt Q00534); experiment: Kinase activity assay IC50 profile; assay type: biochemical; conditions: read-out: IC50 CDK6/D3
CDK6/CycD3, sequence (Q00534 whole entry): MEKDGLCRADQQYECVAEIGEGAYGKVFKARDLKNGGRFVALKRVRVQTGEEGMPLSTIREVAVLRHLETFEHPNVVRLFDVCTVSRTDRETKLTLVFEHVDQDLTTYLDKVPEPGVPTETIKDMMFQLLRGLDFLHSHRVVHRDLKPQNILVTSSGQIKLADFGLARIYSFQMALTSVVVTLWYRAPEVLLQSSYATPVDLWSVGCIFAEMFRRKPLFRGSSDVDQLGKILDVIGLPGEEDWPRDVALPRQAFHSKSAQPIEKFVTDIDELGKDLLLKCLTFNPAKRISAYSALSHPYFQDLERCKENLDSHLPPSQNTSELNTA
CDK6/CycD3, sequence (P30281 whole entry partner): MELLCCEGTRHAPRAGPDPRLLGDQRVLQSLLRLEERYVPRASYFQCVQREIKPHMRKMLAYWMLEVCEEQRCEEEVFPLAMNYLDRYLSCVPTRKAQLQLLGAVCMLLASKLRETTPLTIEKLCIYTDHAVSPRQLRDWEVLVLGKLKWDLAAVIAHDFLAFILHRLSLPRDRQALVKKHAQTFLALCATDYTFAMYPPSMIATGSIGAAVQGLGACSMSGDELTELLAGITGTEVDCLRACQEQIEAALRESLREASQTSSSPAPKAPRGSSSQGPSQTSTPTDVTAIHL

GSK3-alpha, sequence (P49840 whole entry): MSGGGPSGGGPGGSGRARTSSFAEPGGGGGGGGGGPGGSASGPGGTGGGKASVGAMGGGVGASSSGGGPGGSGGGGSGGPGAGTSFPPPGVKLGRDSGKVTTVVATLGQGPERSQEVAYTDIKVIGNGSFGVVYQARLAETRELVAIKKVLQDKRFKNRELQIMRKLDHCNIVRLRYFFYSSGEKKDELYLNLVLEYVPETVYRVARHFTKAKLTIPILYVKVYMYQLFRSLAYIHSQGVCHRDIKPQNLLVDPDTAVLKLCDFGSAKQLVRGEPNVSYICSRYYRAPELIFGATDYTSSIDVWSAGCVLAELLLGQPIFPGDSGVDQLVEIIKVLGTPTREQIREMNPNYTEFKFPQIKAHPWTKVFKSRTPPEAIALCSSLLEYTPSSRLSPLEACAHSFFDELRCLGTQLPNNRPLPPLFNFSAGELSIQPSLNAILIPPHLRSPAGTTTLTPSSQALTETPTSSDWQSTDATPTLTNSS

## COc1cc(F)ccc1-c1ccnc(NC(=O)[C@H]2CCC[C@@H](NC(C)=O)C2)c1 (relative stereo) [Example 33, cis-3-Acetamido-N-(4-(4-fluoro-2-methoxyphenyl)pyridin-2-yl)cyclo-hexanecarboxamide]
GSK3-alpha
  pIC50: 6.80
IRAK1
  pIC50: < 5.30
CDK7/CycH/MAT1
  pIC50: < 5.30
GSK3-beta
  pIC50: 6.04
CDK3/CycE
  pIC50: 6.66
CDK1/CycB
  pIC50: 7.03
CDK9; residual activity at 10 nM compound, read-out: CDK9 10 nM (RA in %)
  remaining activity at 0.01 µM: 29%
CDK9; residual activity at 100 nM compound, read-out: CDK9 100 nM (RA in %)
  remaining activity at 0.1 µM: 3%
[1]
  activity at 3 µM: 3%
CDK5/p35NCK
  pIC50: 5.97
CDK2/CycA
  pIC50: 6.77
CDK6/CycD3
  pIC50: < 5.30
